Reference: ChEMBL document CHEMBL5346896, “Development of indolealkylamine derivatives as potential multi-target agents for COVID-19 treatment” (Eur J Med Chem, 2023)

Test system: SARS-CoV-2
Assay: Antiviral activity against SARS-CoV-2 spike pseudotyped lentivirus infected in HEK293 cells expressing human ACE2 assessed as inhibition of viral entry into cells preincubated with cell for 1 hrs followed by viral infection for 1 hrs and further replaced with fresh medium and measured 48 hrs post transduction by luminescence based luciferase reporter assay
Format: functional, organism-based, HEK293T
Settings: Severe acute respiratory syndrome coronavirus 2, HEK-293T

## COC(=O)NCCc1c(C(O)c2ccccc2)[nH]c2ccc(OC)cc12 (configuration not stated)
  IC50: ~1000 nM

## COc1ccc2[nH]c(C(O)c3ccc(Cl)cc3)c(CCNC(C)=O)c2c1 (configuration not stated)
  IC50: ~1000 nM
